Assays:
[1] = tested on: golden hamster
[2] = tested on: Spontaneously Hypertensive Rats; assay: Effect of NaOGe on blood pressure of spontaneously hypertensive rats; format: in vivo, rats (SHR strain); conditions: in words
Procedure: To investigate the effect of NaOGe on hypertension, 100mg/kg/day of sodium salt of OGe had been administered to spontaneously hypertensive rats (SHR strain) and estimated the change of blood pressure.

[3] = Hygroscopic property; format: physicochemical
[4] = Clinical use: general fatigue, malaise and asthenia; format: in vivo
[5] = Clinical use: epilepsy; format: in vivo, patients
Procedure: A large amount therapy, 100-500mg/body/day in a dosis, is performed. […] In these points, the patients are humanly matured.

[6] = tested on: AH44; assay: Effect on ascites hepatoma AH44 in rats; format: in vivo, Doryu rats; conditions: 100mg/kg/day for 10 days, all control rats died
Procedure: (§1) Dr. H. Sato, of our research group, investigated the antitumor effect of NaOGe by using several strains of ascites hepatoma in rats. For this investigation, the following […] strains of hepatoma were used: AH13, AH130, AH272, AH44, AH66F, AH7974, AH41C, AH60C and AH109A. 10^7 cells of each strain tumor were inoculated intravenously into the Doryu rats, 72 hours later, 100mg/kg/day of OGe was administered for 10 days.

[7] = tested on: ascites hepatoma; assay: Direct cytocidal action of NaOGe; parameters: species or system rats; conditions: in words
[8] = Clinical use: therapy of dysfunction liver (hepatitis); format: in vivo, patients
Procedure: In patients receiving 100mg/body/day of the drug, the improvement of alkali phosphatase, SGOT, SGPT, ASAC and α-GPT and abnormal fraction of serum-protein was observed.

[9] = Clinical use: migrain; format: in vivo
[10] = Clinical use: improvement of peripheral circulation; format: in vivo, patient
Excerpt: This is observed by plethysmography.

[11] = Clinical use: effect in obstetrics; format: in vivo, patients
Excerpt: The drug is particularly-effective on various symptoms including morning sickness caused by pregnance.

[12] = Clinical use: acceleration of heart function; format: in vivo, patients
[13] = tested on: Rats (Wistar strain); assay: Acute toxicity of NaOGe in rats; format: in vivo; conditions: per os, female
Excerpt: (§2) Acute Toxicities of NaOGe according to the […]

[14] = Acute toxicity of NaOGe in rats; format: in vivo, Rats (Wistar strain); conditions: rat, in vivo, po; per os, male
Excerpt: as §2

[15] = Effect of NaOGe on essential hypertension in human being; format: in vivo; conditions: in words
Procedure: Dr. A. Ishikawa, of our research group, has investigated the effect of NaOGe on essential hypertension in human being. The adminstration of 40-150 mg/body of NaOGe was divided orally in two or three doses. The duration of drug administration was at the least 1 month, at the most 12 months. The following results are obtained:
(§3) *Numbers showing good response / total numbers

[16] = Acute toxicity of NaOGe in mice; format: in vivo, Mice (ICR strain); conditions: mouse, in vivo, po; per os, male
Excerpt: as §2

[17] = tested on: Mice (ICR strain); assay: Acute toxicity of NaOGe in mice; format: in vivo; conditions: per os, female
Excerpt: as §2

[18] = Clinical use: hepatoma; conditions: in vivo
[19] = Clinical use: allergic diseases; format: in vivo, patients
[20] = Clinical use: protective effect of drug administration for long periods; format: in vivo; conditions: 50mg/body/day administered with the others, long-term
[21] = Clinical use: depression; format: in vivo, patients; conditions: about 100mg/body/day oral
Excerpt: In moderate depression, about at the 8th day after drug administration, the improvement is observed.

[22] = Effect of NaOGe on Diabetes Mellitus in human being; format: in vivo; conditions: in words
Procedure: The duration of drug administration was at the least 1 month, at the most 12 months. The following results are obtained:
as §3
Dr. A. Ishikawa of our research group has investigated the effect of NaOGe on Diabetes Millitus in human being. The administration of 40-150 mg/kg body of NaOGe was divided orally in two or three doses.

[23] = tested on: AH66; assay: Effect on ascites hepatoma AH66 in rats; format: in vivo, Doryu rats; conditions: 100mg/kg/day for 10 days, all control rats died
Procedure: as §1

[24] = Clinical use: peripheral neuritis; format: in vivo, patients; conditions: 100mg/body/day
[25] = Clinical use: schizophrenia; format: in vivo, patients; conditions: 200-300mg/body/day oral
Procedure: The oral administration of 200mg/body/day ~ 300mg/body/day is necessary.

[26] = Effect of NaOGe on development of amyloidosis in mice; format: in vivo, ICR strain mice; conditions: in words
Procedure: From the above results, it was presumed that OGe might act not only hypertension but some of metabolic changes related to aging. Thus, the influence of NaOGe on the development of amyloidosis in mice was tested. The ICR strain mice had been treated with oral administration of NaOGe for 22 months. After that, all mice were sacrificed and the development of amyloidosis in several important organs was investigated.

[27] = Clinical use: digestive system; format: in vivo
Excerpt: The effect is found clearly by X-ray examination.

[28] = Clinical use: loss of autonomic nervous system function; format: in vivo, patients
[29] = tested on: infants; assay: Clinical use: infants; format: in vivo
[30] = Clinical use: liver cirrhose; format: in vivo, patients; conditions: 100-200mg/body/day
[31] = Clinical use: kidney function; conditions: in vivo
[32] = cadmium chloride 2.0 mg/kg iv alone, 8th day of gestation
[33] = 75mg/body/day, asthma bronchitis and chronic exanthema

Question: With `[Cl][Cd][Cl]` [Cadmium chloride] as the molecule, how does the teratogenic action ([1]; 2.0mg/kg intravenously, 8th day of gestation, in words) read?
Answer: produces cleft palate, exencepalia, harelips and open-eye lid

Question: What about the Living fetuses [1, 32] of the same molecule?
Answer: 4.9%

Question: And the Malformation [1, 32]?
Answer: 25.5%

Question: What about the Resorbed embryos [1, 32] of the same molecule?
Answer: 51.0%

Question: With `O=C(O)C[CH2][Ge]([OH])([OH])[OH]` [OGe, 3-trihydroxygermylpropionic acid] as the molecule, how does the “effect on hypertension in rats” value [2] read?
Answer: highly effective on hypertension in rats and the effect appears gradually

Question: Which hygroscopic property [3] does the source give for `O=C([O-])C[CH2][Ge]([OH])([OH])[OH].[NH4+]` [Ammonium 3-trihydroxygermylpropionate] here?
Answer: hydroscopic

Question: Which “symptoms of general fatigue, malaise and asthenia” value ([4]; 75mg/body/day) does the source give for `O=C([O-])C[CH2][Ge]([OH])([OH])[OH].[Na+]` [NaOGe, Sodium 3-trihydroxygermylpropionate] here?
Answer: loss of the symptoms of general fatigue, malaise and asthenia

Question: What about the “symptoms due to neurosis” value ([4]; increase of dose to 75mg/body/day) of the same molecule?
Answer: early the disappearance of the symptoms due to neurosis

Question: And the “EEG: epilepsy specific spike” value ([5]; 100-500mg/body/day oral)?
Answer: the loss of epilepsy specific spike is found

Question: What about the “EEG: slow burst” value ([5]; 100-500mg/body/day oral) of the same molecule?
Answer: the inhibition of slow burst is not observed

Question: What about the drowsiness ([5]; 100-500mg/body/day oral) of the same molecule?
Answer: complete lack of drowsiness

Question: What about the grade of convulsion ([5]; 100-500mg/body/day oral) of the same molecule?
Answer: becomes lighter

Question: And the “interval of convulsion appearance” value ([5]; 100-500mg/body/day oral)?
Answer: becomes gradually longer

Question: What about the “learning and working ability” value ([5]; 100-500mg/body/day oral) of the same molecule?
Answer: the improvement of learning -- and working -- ability is observed

Question: What about the absence of symptoms ([5]; continued oral administration, 100-500mg/body/day) of the same molecule?
Answer: many patients did not show any symptom

Question: And the “treated rats showing a complete cure” value [6]?
Answer: half

Question: And the direct cytocidal action [7]?
Answer: does not possess direct cytocidal action

Question: What about the “alkali phosphatase, SGOT, SGPT, ASAC and α-GPT and abnormal fraction of serum-protein” value ([8]; 100mg/body/day) of the same molecule?
Answer: improvement

Question: And the “spontaneous cure of acute and chronic hepatitis” value ([8]; human, in vivo)?
Answer: acceleration of the spontaneous cure

Question: What about the effect on migraine ([9]; 75mg/body/day) of the same molecule?
Answer: effective on migraine

Question: And the “symptoms caused by brain-anemia” value ([9]; in vivo)?
Answer: shows the effect on the symptoms caused by brain-anemia

Question: And the cold exanthema ([10]; human, in vivo)?
Answer: protects the appearance of cold exanthema

Question: What about the “peripheral circulating blood amount” value ([10]; single administration of 50 mg/body/day, plethysmography) of the same molecule?
Answer: increase of peripheral circulating blood amount

Question: What about the “effect in serious patients indicated for artificial pregnance stopping” value ([11]; 100-200mg/body/day) of the same molecule?
Answer: effective one some serious patients

Question: What about the “symptoms including morning sickness” value ([11]; human, in vivo) of the same molecule?
Answer: particularly-effective

Question: What about the blood-stream ([12]; 75-150mg/body/day) of the same molecule?
Answer: increase of blood-stream

Question: What about the ECG pattern ([12]; 75-150mg/body/day, patients with blood-loss ECG symptom) of the same molecule?
Answer: improvement of ECG pattern

Question: And the effect on blood-vessels ([12]; from the effect on the eye ground symptoms)?
Answer: stabilizing effect of blood-vessels

Question: And the “subcutaneous bleeding of legs and hands” value ([12]; old people)?
Answer: inhibited

Question: And the LD50 [13]?
Answer: over 10 g/kg

Question: And the LD50 [14]?
Answer: > 10000 mg/kg

Question: What about the “effect in treatment and prevention of essential hypertension” value [15] of the same molecule?
Answer: effective in the treatment and the prevention of essential hypertension

Question: What about the LD50 [16] of the same molecule?
Answer: > 10000 mg/kg

Question: And the LD50 [17]?
Answer: over 10 g/kg

Question: What about the life span [18] of the same molecule?
Answer: increase of life span

Question: And the “Malformation produced by cadmium chloride” value ([1]; NaOGe 40.0mg/kg, simultaneous intravenous injection, in words)?
Answer: prevented completely

Question: What about the “condition 6 months to 1 year after drug administration” value ([19]; 75mg/body/day, 6 months to 1 year) of the same molecule?
Answer: many patients show a condition looking like a complete cure

Question: What about the frequency of symptom-appearance [19, 33] of the same molecule?
Answer: decrease of the frequency of symptom-appearance

Question: And the “interval of symptom appearance” value [19, 33]?
Answer: becomes longer

Question: And the “use of adrenal cartex hormone” value [19, 33]?
Answer: decrease of adrenal cartex hormone or stop of the hormone

Question: And the drug allergic reaction ([19]; patients with drug allergy, given with an allergenic drug)?
Answer: any drug allergic reaction is not observed

Question: What about the “side effects of tranquilizers and anti-tuberculosis drugs” value [20] of the same molecule?
Answer: decrease of side effects

Question: What about the depressive status [21] of the same molecule?
Answer: improvement of depressive status

Question: And the drowsiness [21]?
Answer: does not give any drowsiness

Question: And the initiation of autonomy [21]?
Answer: clearly observed after drug administration

Question: What about the “effect on Diabetes Mellitus” value [22] of the same molecule?
Answer: effective on Diabetes Mellitus

Question: And the “treated rats showing a complete cure” value [23]?
Answer: half

Question: And the hygroscopic property [3]?
Answer: hydroscopic

Question: What about the “effect on peripheral neuritis” value [24] of the same molecule?
Answer: become to enjoy normal daily life without serious pain

Question: And the hullucination [25]?
Answer: the disappearance of hullucination is accelerated

Question: What about the “self-recognization of the disease” value [25] of the same molecule?
Answer: clearly found rather early after drug administration

Question: What about the working ability [25] of the same molecule?
Answer: The working ability is observed

Question: What about the development of amyloidosis ([26]; 30mg/kg/day) of the same molecule?
Answer: a clear prevention of the development was observed

Question: What about the development of amyloidosis ([26]; 300mg/kg/day) of the same molecule?
Answer: completely inhibited the development of amyloidosis

Question: What about the “subjective symptoms and ulcers” value ([27]; X-ray examination) of the same molecule?
Answer: loss of subjective symptoms and the cure of ulcers

Question: And the effect on constipation ([27]; in vivo)?
Answer: effective on constipation

Question: What about the “movement of stomach and intestine” value ([27]; in vivo) of the same molecule?
Answer: modification of movement of stomach and intestine

Question: What about the “effect compared with other therapy” value ([27]; ulcers) of the same molecule?
Answer: higher than any other therapy

Question: What about the “effect in patients resistant to other drugs” value ([28]; 75mg/body/day oral) of the same molecule?
Answer: shows the effect on many patients showing resistance against any other drugs

Question: What about the “objective and functional abnormality of various organs controlled by autonomic nervous system” value ([28]; after drug administration) of the same molecule?
Answer: are not found after drug administration

Question: What about the “actonic vomiting and autointoxication” value ([29]; 20 - 50 mg/body/day) of the same molecule?
Answer: effective on actonic vomiting and autointoxication of infants

Question: What about the body weight ([29]; 100-200mg/body/day, infants showing decrease of body weight) of the same molecule?
Answer: increase

Question: What about the ascites [30] of the same molecule?
Answer: beginning of the loss of ascites

Question: What about the liver function [30] of the same molecule?
Answer: acceleration of the recovery of liver function

Question: And the “progress of liver dysfunction” value [30]?
Answer: stopped the progress of liver dysfunction

Question: What about the appearance of proteiureia [31] of the same molecule?
Answer: the appearance of proteiureia is inhibited

Question: And the diuretic effect [31]?
Answer: diuretic effect is observed
